{
  "source": "patent US4545932A",
  "about": "“Glucosaminyl muramyl peptide derivatives” (Dainippon Pharmaceutical Co., Ltd., priority 1982, dated 1985)",
  "type_in_all_cases": "in vivo",
  "key": {"[1]": {"assay": "Pyrogenicity in rabbits", "details": "for Pyrogenicity in rabbits: injected into ear vein, three rabbits per group", "description": "Rabbits (each group: three rabbits) were used. Test compounds dissolved in a physiological saline solution were each injected into ear vein of rabbits. The difference between maximum body temperature within three hours after the injection of test compound and the body temperature before the injection was regarded as rise in body temperature. The degree of pyrogenicity was evaluated according to the following criterion: […]"}, "[2]": {"test_system": "various microorganisms", "assay": "Antiinfectious effect in mice", "details": "similar experiments; no data given", "source_text": "(§1) Std-ddY male mice weighing about 23 g (each group: 8 mice) were used. Test compounds dissolved in a physiological saline solution were each intravenously administered to mice once a day 1, 2 and 3 days before the infection. Twenty-four hours after the final administration of test compounds, the mice were infected with various microorganisms suspended in saline (in case of Staphylococcus aureus and Candida albicans) or in Trypto-Soy Broth (manufactured by Eiken Chemical Co., Ltd., Japan) (in case of Pseudomonas aeruginosa and Escherichia coli) under the conditions as shown in Table 1. When the experiment was repeated twice or more, the data were pooled.\nBesides, as to the compounds of Examples 8, 18, 36, 37 and 45 (derivatives of GMP3 -A), similar experiments were done."}, "[3]": {"test_system": "Escherichia coli P-5101", "assay": "Prophylactic effect on experimental infection, Escherichia coli", "details": "Std-ddY male mice, 7 days after infection", "source_text": "as §1\n(§2) ^a Test compounds were intravenously administered once a day 1, 2 and\n(§3) 3 days before infection.\n(§4) ^b Figures represent (number of survivals)/(number of animals tested)\n(§5) and figures in parenthesis represent percent survival."}, "[4]": {"test_system": "Pseudomonas aeruginosa No. 12", "assay": "Prophylactic effect on experimental infection, Pseudomonas aeruginosa", "details": "Std-ddY male mice, 7 days after infection", "source_text": "as §1, §2, §3, §4, §5"}, "[5]": {"test_system": "Candida albicans 3170", "assay": "Prophylactic effect on experimental infection, Candida albicans", "details": "Std-ddY male mice, 7 days after infection", "source_text": "as §1\n3170 fungal sus- infection\nas §2, §3, §4, §5"}, "[6]": {"test_system": "Staphylococcus aureus No. 50774", "assay": "Prophylactic effect on experimental infection, Staphylococcus aureus", "details": "Std-ddY male mice, 14 days after infection", "source_text": "as §1, §2, §3, §4, §5"}, "[7]": {"details": "similar experiments, no data given"}, "[8]": {"details": "Dose 0.2 mg/kg i.v. once a day 1, 2 and 3 days before infection"}, "[9]": {"details": "Dose 0.8 mg/kg i.v. once a day 1, 2 and 3 days before infection"}, "[10]": {"details": "Dose 3.1 mg/kg i.v. once a day 1, 2 and 3 days before infection"}, "[11]": {"details": "Dose 12.5 mg/kg i.v. once a day 1, 2 and 3 days before infection"}, "[12]": {"details": "Dose 50 mg/kg i.v. once a day 1, 2 and 3 days before infection"}, "[13]": {"details": "Dose 0.0125 mg/kg i.v. once a day 1, 2 and 3 days before infection"}, "[14]": {"details": "Dose 0.05 mg/kg i.v. once a day 1, 2 and 3 days before infection"}, "[15]": {"details": "Dose 0.125 mg/kg i.v. once a day 1, 2 and 3 days before infection"}},
  "data": [
    {"smiles": "CCCCCCCCCCCCCCCCCC(=O)NC(CCCC(NC(=O)CCC(NC(=O)C(C)NC(=O)C(C)OC1C(NC(C)=O)C(O)OC(CO)C1OC1OC(CO)C(O)C(O)C1NC(C)=O)C(N)=O)C(=O)[O-])C(N)=O.[Na+]", "note": "(stereo not shown) [Example 18]", "values": [
      {"measurement": "pyrogenicity compared with GMP3 -A", "setting": "[1]; [7]", "result": "less pyrogenicity than GMP3 -A"},
      {"measurement": "antiinfectious effect compared with GMP3 -A", "setting": "[2]", "result": "more potent antiinfectious effect"}
    ]},
    {"smiles": "CC(=O)NC(CCCC(NC(=O)CCC(NC(=O)C(C)NC(=O)C(C)OC1C(NC(C)=O)C(O)OC(CO)C1OC1OC(CO)C(O)C(O)C1NC(C)=O)C(N)=O)C(N)=O)C(N)=O", "note": "[Example 36, β-N-acetylglucosaminyl-(1→4)-N-acetylmuramyl-L-alanyl-D-isoglutaminyl-(L)-acetyl-(D)-meso-2,6-diaminopimelic acid-(D),(L)-diamide]", "values": [
      {"measurement": "pyrogenicity compared with GMP3 -A", "setting": "[1]; rabbit, in vivo", "result": "by far the less than that of GMP3 -A"}
    ]},
    {"smiles": "CCCCCCCCCCCCCCCCCCNC(=O)C(CCCC(N)C(N)=O)NC(=O)CCC(NC(=O)C(C)NC(=O)C(C)OC1C(NC(C)=O)C(O)OC(CO)C1OC1OC(CO)C(O)C(O)C1NC(C)=O)C(N)=O.Cl", "note": "[Example 45, β-N-acetylglucosaminyl-(1→4)-N-acetylmuramyl-L-alanyl-D-isoglutaminyl-(L)-meso-2,6-diaminopimelic acid-(D)-amide-(L)-octadecylamide hydrochloride]", "values": [
      {"measurement": "pyrogenicity compared with GMP3 -A", "setting": "[1]; rabbit, in vivo", "result": "by far the less than that of GMP3 -A"}
    ]},
    {"smiles": "CCCCCCCCCCNC(=O)C(CCCC(NC(C)=O)C(N)=O)NC(=O)CCC(NC(=O)C(C)NC(=O)C(C)OC1C(NC(C)=O)C(O)OC(CO)C1OC1OC(CO)C(O)C(O)C1NC(C)=O)C(N)=O", "note": "(stereo not shown) [Example 37]", "values": [
      {"measurement": "pyrogenicity compared with GMP3 -A", "setting": "[1]; rabbit, in vivo", "result": "by far the less than that of GMP3 -A"}
    ]},
    {"smiles": "CCCCCCCCC=CCCCCCCCC(=O)NC(CCCC(NC(=O)CCC(NC(=O)C(C)NC(=O)C(C)OC1C(NC(C)=O)C(O)OC(CO)C1OC1OC(CO)C(O)C(O)C1NC(C)=O)C(N)=O)C(=O)[O-])C(N)=O.[Na+]", "note": "(stereo not shown) [Example 8]", "values": [
      {"measurement": "pyrogenicity compared with GMP3 -A", "setting": "[1]; [7]", "result": "less pyrogenicity than GMP3 -A"},
      {"measurement": "antiinfectious effect compared with GMP3 -A", "setting": "[2]", "result": "more potent antiinfectious effect"}
    ]},
    {"smiles": "CC(=O)NC1C(OC2C(CO)OC(O)C(NC(C)=O)C2OC(C)C(=O)NC(C)C(=O)NC(CCC(=O)NC(CCCC(N)C(N)=O)C(=O)NC(C)C(=O)O)C(N)=O)OC(CO)C(O)C1O", "note": "[GMP4 -A, β-N-acetylglucosaminyl-(1→4)-N-acetylmuramyl-L-alanyl-D-isoglutaminyl-(L)-meso-2,6-diaminopimelic acid-(D)-amide-(L)-D-alanine, reference compound]", "values": [
      {"measurement": "(number of survivals)/(number of animals tested)", "setting": "[3]; [8]", "result": "0/8"},
      {"measurement": "percent survival", "setting": "[3]; [8]", "result": 0, "unit": "%"},
      {"measurement": "(number of survivals)/(number of animals tested)", "setting": "[3]; [9]", "result": "0/8"},
      {"measurement": "percent survival", "setting": "[3]; [9]", "result": 0, "unit": "%"},
      {"measurement": "(number of survivals)/(number of animals tested)", "setting": "[3]; [10]", "result": "5/24"},
      {"measurement": "percent survival", "setting": "[3]; [10]", "result": 20.8, "unit": "%"},
      {"measurement": "(number of survivals)/(number of animals tested)", "setting": "[3]; [11]", "result": "10/24"},
      {"measurement": "percent survival", "setting": "[3]; [11]", "result": 41.7, "unit": "%"},
      {"measurement": "(number of survivals)/(number of animals tested)", "setting": "[3]; [12]", "result": "10/16"},
      {"measurement": "percent survival", "setting": "[3]; [12]", "result": 62.5, "unit": "%"},
      {"measurement": "(number of survivals)/(number of animals tested)", "setting": "[4]; [13]", "result": "12/40"},
      {"measurement": "percent survival", "setting": "[4]; [13]", "result": 30, "unit": "%"},
      {"measurement": "(number of survivals)/(number of animals tested)", "setting": "[4]; [14]", "result": "16/48"},
      {"measurement": "percent survival", "setting": "[4]; [14]", "result": 33.3, "unit": "%"},
      {"measurement": "(number of survivals)/(number of animals tested)", "setting": "[4]; [8]", "result": "23/56"},
      {"measurement": "percent survival", "setting": "[4]; [8]", "result": 41.1, "unit": "%"},
      {"measurement": "(number of survivals)/(number of animals tested)", "setting": "[4]; [9]", "result": "31/72"},
      {"measurement": "percent survival", "setting": "[4]; [9]", "result": 43.1, "unit": "%"},
      {"measurement": "(number of survivals)/(number of animals tested)", "setting": "[4]; [10]", "result": "27/64"},
      {"measurement": "percent survival", "setting": "[4]; [10]", "result": 42.2, "unit": "%"},
      {"measurement": "(number of survivals)/(number of animals tested)", "setting": "[4]; [11]", "result": "32/48"},
      {"measurement": "percent survival", "setting": "[4]; [11]", "result": 66.7, "unit": "%"},
      {"measurement": "Pyrogenicity in rabbits", "setting": "[1]; Dose 0.1 mg/rabbit", "result": "- (one animal showed rise in body temperature of 0.6 °C or more)"},
      {"measurement": "Pyrogenicity in rabbits", "setting": "[1]; Dose 0.3 mg/rabbit", "result": "+ (two or more animals showed rise in body temperature of 0.6 °C or more)"},
      {"measurement": "Pyrogenicity in rabbits", "setting": "[1]; Dose 1 mg/rabbit", "result": "+ (two or more animals showed rise in body temperature of 0.6 °C or more)"},
      {"measurement": "Pyrogenicity in rabbits", "setting": "[1]; Dose 3 mg/rabbit", "result": "+ (two or more animals showed rise in body temperature of 0.6 °C or more)"},
      {"measurement": "Pyrogenicity in rabbits", "setting": "[1]; Dose 10 mg/rabbit", "result": "+ (two or more animals showed rise in body temperature of 0.6 °C or more)"},
      {"measurement": "(number of survivals)/(number of animals tested)", "setting": "[5]; [10]", "result": "2/8"},
      {"measurement": "percent survival", "setting": "[5]; [10]", "result": 25, "unit": "%"},
      {"measurement": "(number of survivals)/(number of animals tested)", "setting": "[5]; [11]", "result": "4/8"},
      {"measurement": "percent survival", "setting": "[5]; [11]", "result": 50, "unit": "%"},
      {"measurement": "(number of survivals)/(number of animals tested)", "setting": "[5]; [12]", "result": "6/8"},
      {"measurement": "percent survival", "setting": "[5]; [12]", "result": 75, "unit": "%"},
      {"measurement": "(number of survivals)/(number of animals tested)", "setting": "[6]; [14]", "result": "3/24"},
      {"measurement": "percent survival", "setting": "[6]; [14]", "result": 12.5, "unit": "%"},
      {"measurement": "(number of survivals)/(number of animals tested)", "setting": "[6]; [15]", "result": "0/8"},
      {"measurement": "percent survival", "setting": "[6]; [15]", "result": 0, "unit": "%"},
      {"measurement": "(number of survivals)/(number of animals tested)", "setting": "[6]; [8]", "result": "6/16"},
      {"measurement": "percent survival", "setting": "[6]; [8]", "result": 37.5, "unit": "%"},
      {"measurement": "(number of survivals)/(number of animals tested)", "setting": "[6]; [9]", "result": "11/32"},
      {"measurement": "percent survival", "setting": "[6]; [9]", "result": 34.4, "unit": "%"},
      {"measurement": "(number of survivals)/(number of animals tested)", "setting": "[6]; [10]", "result": "11/32"},
      {"measurement": "percent survival", "setting": "[6]; [10]", "result": 34.4, "unit": "%"},
      {"measurement": "(number of survivals)/(number of animals tested)", "setting": "[6]; [11]", "result": "23/32"},
      {"measurement": "percent survival", "setting": "[6]; [11]", "result": 71.9, "unit": "%"}
    ]}
  ]
}
